In this test the target is mGluR5 (Homo sapiens, UniProt P41594). The test is described as follows: mGluR5 positive allosteric modulator (PAM) functional assay. The format is cell-based.
Chain of mGluR5 (P41594 21-1212): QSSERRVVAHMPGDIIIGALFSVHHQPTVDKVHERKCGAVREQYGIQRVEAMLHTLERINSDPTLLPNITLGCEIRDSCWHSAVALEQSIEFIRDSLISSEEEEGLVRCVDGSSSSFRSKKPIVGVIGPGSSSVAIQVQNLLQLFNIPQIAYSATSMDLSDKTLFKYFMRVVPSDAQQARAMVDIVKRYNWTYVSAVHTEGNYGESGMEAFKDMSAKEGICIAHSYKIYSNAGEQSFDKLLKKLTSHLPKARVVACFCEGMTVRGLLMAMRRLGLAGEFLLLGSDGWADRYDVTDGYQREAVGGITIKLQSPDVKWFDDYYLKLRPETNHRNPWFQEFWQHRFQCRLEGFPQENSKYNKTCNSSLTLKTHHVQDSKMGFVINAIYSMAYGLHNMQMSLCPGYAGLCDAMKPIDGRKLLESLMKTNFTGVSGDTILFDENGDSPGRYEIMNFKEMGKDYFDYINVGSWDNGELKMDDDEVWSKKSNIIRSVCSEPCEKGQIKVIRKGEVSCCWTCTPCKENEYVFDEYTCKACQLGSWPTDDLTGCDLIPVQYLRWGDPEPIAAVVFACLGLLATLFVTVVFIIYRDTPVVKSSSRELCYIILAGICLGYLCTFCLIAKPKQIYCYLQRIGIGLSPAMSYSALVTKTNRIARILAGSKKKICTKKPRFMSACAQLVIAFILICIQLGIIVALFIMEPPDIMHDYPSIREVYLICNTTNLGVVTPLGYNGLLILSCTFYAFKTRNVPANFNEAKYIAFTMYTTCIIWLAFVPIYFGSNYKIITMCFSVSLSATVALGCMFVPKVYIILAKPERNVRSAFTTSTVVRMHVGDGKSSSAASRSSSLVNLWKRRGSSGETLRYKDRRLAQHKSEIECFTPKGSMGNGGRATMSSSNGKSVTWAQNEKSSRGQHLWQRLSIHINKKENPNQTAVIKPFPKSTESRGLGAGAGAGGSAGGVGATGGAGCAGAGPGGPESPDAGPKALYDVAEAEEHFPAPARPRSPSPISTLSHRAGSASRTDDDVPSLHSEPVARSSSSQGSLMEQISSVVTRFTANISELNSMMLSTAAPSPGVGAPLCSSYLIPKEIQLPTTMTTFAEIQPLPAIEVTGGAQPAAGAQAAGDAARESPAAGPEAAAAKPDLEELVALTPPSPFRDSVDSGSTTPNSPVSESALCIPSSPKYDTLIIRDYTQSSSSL
Regarding `COC(C)c1nc(-c2ccc(C#Cc3cccc(F)c3)cn2)no1` (centres unmarked) [Compound 96, 3-(5-((3-fluorophenyl)ethynyl)pyridin-2-yl)-5-(1-methoxyethyl)-1,2,4-oxadiazole], the EC50 (usually the concentration giving half of the maximal effect) is not above 30 nM.
In turn, `CNC(C)(C)c1nc(-c2ccc(C#Cc3cccc(F)c3)cn2)no1` [Compound 112, 2-(3-(5-((3-fluorophenyl)ethynyl)pyridin-2-yl)-1,2,4-oxadiazol-5-yl)-N-methylpropan-2-amine] registered an EC50 not above 30 nM.
Compound `C[C@@H](c1nc(-c2ccc(C#Cc3cccc(F)c3)cn2)no1)N(C)C` [Compound 106, (S)-1-(3-(5-((3-fluorophenyl)ethynyl)pyridin-2-yl)-1,2,4-oxadiazol-5-yl)-N,N-dimethylethanamine] returned an EC50 not above 30 nM.
Consider `CCC(CC)c1nc(-c2ccc(C#Cc3ccncc3)cc2)no1` [Compound 75, 5-(pentan-3-yl)-3-(4-(pyridin-4-ylethynyl)phenyl)-1,2,4-oxadiazole], for which the EC50 was in the range of 30 to 100 nM.
In the case of `CC(C)Cc1nc(-c2ccc(C#Cc3cccc(F)c3)cc2)no1` [Compound 26, 3-(4-((3-fluorophenyl)ethynyl)phenyl)-5-isobutyl-1,2,4-oxadiazole], the EC50 was 300 to 1000 nM.
With `CN1C[C@H](F)C[C@@H]1c1nc(-c2ccc(C#Cc3ccccn3)cn2)no1` [Compound 169, 5-((2R,4R)-4-fluoro-1-methylpyrrolidin-2-yl)-3-(5-(pyridin-2-ylethynyl)pyridin-2-yl)-1,2,4-oxadiazole] the figure was 300 to 1000 nM; with `CCC(OC)c1nc(-c2ccc(C#Cc3ccncc3)cc2)no1` (centres unmarked) [Compound 76, 5-(1-methoxypropyl)-3-(4-(pyridin-4-ylethynyl)phenyl)-1,2,4-oxadiazole], 30 to 100 nM.
For the compound `CCC(NC1CC1)c1nc(-c2ccc(C#Cc3ccccn3)cn2)no1` (centres unmarked) [Compound 149, N-(1-(3-(5-(pyridin-2-ylethynyl)pyridin-2-yl)-1,2,4-oxadiazol-5-yl)propyl)cyclopropanamine], the EC50 lay in the range of 300 to 1000 nM.
`CC(c1nc(-c2ccc(C#Cc3cccc(F)c3)cc2)no1)N1CCC1` (centres unmarked) [Compound 52, 5-(1-(azetidin-1-yl)ethyl)-3-(4-((3-fluorophenyl)ethynyl)phenyl)-1,2,4-oxadiazole] displayed an EC50 of 300 to 1000 nM.
With `CNC(C)c1nc(-c2ccc(C#Cc3ccncc3)cc2)no1` (centres unmarked) [Compound 79, N-methyl-1-(3-(4-(pyridin-4-ylethynyl)phenyl)-1,2,4-oxadiazol-5-yl)ethanamine] the figure was 100 to 300 nM; with `CC(c1nnc(-c2ccc(C#Cc3ccccn3)cn2)n1C)N1CCCC1` (centres unmarked) [Compound 10, 2-(4-methyl-5-(1-(pyrrolidin-1-yl)ethyl)-4H-1,2,4-triazol-3-yl)-5-(pyridin-2-ylethynyl)pyridine], 100 to 300 nM; with `CCC(CC)c1nc(-c2ccc(C#Cc3ccncc3)nc2)no1` [Compound 91, 5-(pentan-3-yl)-3-(6-(pyridin-4-ylethynyl)pyridin-3-yl)-1,2,4-oxadiazole], not above 30 nM.
In turn, `CCC(C)c1nc(-c2ccc(C#Cc3cccc(F)c3)cn2)no1` (centres unmarked) [Compound 94, 5-(sec-butyl)-3-(5-((3-fluorophenyl)ethynyl)pyridin-2-yl)-1,2,4-oxadiazole] returned an EC50 not above 30 nM.
With `CCC(C)c1nc(-c2ccc(C#Cc3ccncc3)cc2)no1` (centres unmarked) [Compound 71, 5-(sec-butyl)-3-(4-(pyridin-4-ylethynyl)phenyl)-1,2,4-oxadiazole] the figure was 100 to 300 nM; with `CNC(C)(C)c1nc(-c2ccc(C#Cc3ccccn3)cn2)no1` [Compound 144, N-methyl-2-(3-(5-(pyridin-2-ylethynyl)pyridin-2-yl)-1,2,4-oxadiazol-5-yl)propan-2-amine], 300 to 1000 nM.
The compound `CC(NC1CC1)c1nc(-c2ccc(C#Cc3cccc(F)c3)cn2)no1` (centres unmarked) [Compound 109, N-(1-(3-(5-((3-fluorophenyl)ethynyl)pyridin-2-yl)-1,2,4-oxadiazol-5-yl)ethyl)cyclopropanamine] registered an EC50 not above 30 nM.
As to `CC[C@H](C)c1nc(-c2ccc(C#Cc3cccc(F)c3)cc2)no1` (single isomer, unassigned) [Compound 30], the EC50 lay in the range of 300 to 1000 nM.
`Fc1cccc(C#Cc2ccc(-c3noc(C4CCCN4C4CCC4)n3)nc2)c1` (centres unmarked) [Compound 126, 5-(1-cyclobutylpyrrolidin-2-yl)-3-(5-((3-fluorophenyl)ethynyl)pyridin-2-yl)-1,2,4-oxadiazole] displayed an EC50 of 30 to 100 nM.
The compound `CN1CC(F)(F)C[C@H]1c1nc(-c2ccc(C#Cc3ccccn3)cn2)no1` [Compound 155, (S)-5-(4,4-difluoro-1-methylpyrrolidin-2-yl)-3-(5-(pyridin-2-ylethynyl)pyridin-2-yl)-1,2,4-oxadiazole] had an EC50 of 100 to 300 nM.
With `Fc1cccc(C#Cc2ccc(-c3noc(C4CCCN4)n3)nc2)c1` (centres unmarked) [Compound 119, 3-(5-((3-fluorophenyl)ethynyl)pyridin-2-yl)-5-(pyrrolidin-2-yl)-1,2,4-oxadiazole] the figure was 300 to 1000 nM.
In turn, `C(#Cc1ccccn1)c1ccc(-c2noc(C3CCCN3)n2)nc1` (centres unmarked) [Compound 151, 3-(5-(pyridin-2-ylethynyl)pyridin-2-yl)-5-(pyrrolidin-2-yl)-1,2,4-oxadiazole] showed an EC50 of 300 to 1000 nM.
With `COC(C)c1nc(-c2ccc(C#Cc3cccc(F)c3)cc2)no1` (centres unmarked) [Compound 58, 3-(4-((3-fluorophenyl)ethynyl)phenyl)-5-(1-methoxyethyl)-1,2,4-oxadiazole] the figure was 100 to 300 nM.
In turn, `CCC(N)c1nc(-c2ccc(C#Cc3cccc(F)c3)cn2)no1` (centres unmarked) [Compound 114, 1-(3-(5-((3-fluorophenyl)ethynyl)pyridin-2-yl)-1,2,4-oxadiazol-5-yl)propan-1-amine] showed an EC50 of 100 to 300 nM.
On to `CN1CCCC1c1nc(-c2ccc(C#Cc3cccc(F)c3)cc2)no1` (centres unmarked) [Compound 47, 3-(4-((3-fluorophenyl)ethynyl)phenyl)-5-(1-methylpyrrolidin-2-yl)-1,2,4-oxadiazole], for which the EC50 lay in the range of 100 to 300 nM.
The compound `Fc1cccc(C#Cc2ccc(-c3noc(C4CCCN4C4CCC4)n3)cc2)c1` (centres unmarked) [Compound 50, 5-(1-cyclobutylpyrrolidin-2-yl)-3-(4-((3-fluorophenyl)ethynyl)phenyl)-1,2,4-oxadiazole] came in with an EC50 of 300 to 1000 nM.
Compound `CC(C)N1CCCC1c1nc(-c2ccc(C#Cc3cccc(F)c3)cc2)no1` (centres unmarked) [Compound 49, 3-(4-((3-fluorophenyl)ethynyl)phenyl)-5-(1-isopropylpyrrolidin-2-yl)-1,2,4-oxadiazole] displayed an EC50 of 300 to 1000 nM.
Take `CCC(OC)c1nc(-c2ccc(C#Cc3cccc(F)c3)cn2)no1` (centres unmarked) [Compound 97, 3-(5-((3-fluorophenyl)ethynyl)pyridin-2-yl)-5-(1-methoxypropyl)-1,2,4-oxadiazole]: the EC50 was not above 30 nM.
The compound `CCC(C)c1nc(-c2ccc(C#Cc3cccnc3)cc2)no1` (centres unmarked) [Compound 81, 5-(sec-butyl)-3-(4-(pyridin-3-ylethynyl)phenyl)-1,2,4-oxadiazole] displayed an EC50 of 300 to 1000 nM.
In turn, `O[C@H]1CN[C@H](c2nc(-c3ccc(C#Cc4cccc(F)c4)cn3)no2)C1` [Compound 129, (3R,5S)-5-(3-(5-((3-fluorophenyl)ethynyl)pyridin-2-yl)-1,2,4-oxadiazol-5-yl)pyrrolidin-3-ol] had an EC50 of 300 to 1000 nM.
For `C(#Cc1ccccn1)c1ccc(-c2noc(C34CCCN3CCC4)n2)nc1` [Compound 170, 5-(hexahydro-1H-pyrrolizin-7a-yl)-3-(5-(pyridin-2-ylethynyl)pyridin-2-yl)-1,2,4oxadiazole], the EC50 lay in the range of 30 to 100 nM.
In the case of `CNC(C)c1nc(-c2ccc(C#Cc3cccc(F)c3)cn2)no1` (centres unmarked) [Compound 107, 1-(3-(5-((3-fluorophenyl)ethynyl)pyridin-2-yl)-1,2,4-oxadiazol-5-yl)-N-methylethanamine], the EC50 lay in the range of 30 to 100 nM.
To `C#CCN1CCCC1c1nc(-c2ccc(C#Cc3cccc(F)c3)cn2)no1` (centres unmarked) [Compound 124, 3-(5-((3-fluorophenyl)ethynyl)pyridin-2-yl)-5-(1-(prop-2-yn-1-yl)pyrrolidin-2-yl)-1,2,4-oxadiazole] belongs not above 30 nM.
To `N#CCN1CCCC1c1nc(-c2ccc(C#Cc3cccc(F)c3)cn2)no1` (centres unmarked) [Compound 125, 2-(2-(3-(5-((3-fluorophenyl)ethynyl)pyridin-2-yl)-1,2,4-oxadiazol-5-yl)pyrrolidin-1-yl)acetonitrile] belongs 30 to 100 nM; to `CCC(OC)c1nc(-c2ccc(C#Cc3ccccn3)nc2)no1` (centres unmarked) [Compound 89, 5-(1-methoxypropyl)-3-(6-(pyridin-2-ylethynyl)pyridin-3-yl)-1,2,4-oxadiazole], 300 to 1000 nM; to `CN1C[C@H](O)C[C@H]1c1nc(-c2ccc(C#Cc3cccc(F)c3)cn2)no1` [Compound 130, (3R,5S)-5-(3-(5-((3-fluorophenyl)ethynyl)pyridin-2-yl)-1,2,4-oxadiazol-5-yl)-1-methylpyrrolidin-3-ol], 30 to 100 nM.
The compound `CC(C)(C)OC(=O)N1CCC1c1nc(-c2ccc(C#Cc3cccc(F)c3)cn2)no1` (centres unmarked) [Compound 99, tert-butyl 2-(3-(5-((3-fluorophenyl)ethynyl)pyridin-2-yl)-1,2,4-oxadiazol-5-yl)azetidine-1-carboxylate] showed an EC50 of 300 to 1000 nM.
With `CCN(CC)C(C)c1nc(-c2ccc(C#Cc3cccc(F)c3)cn2)no1` (centres unmarked) [Compound 111, N,N-diethyl-1-(3-(5-((3-fluorophenyl)ethynyl)pyridin-2-yl)-1,2,4-oxadiazol-5-yl)ethanamine], the EC50 is not above 30 nM.
For the compound `Fc1cccc(C#Cc2ccc(-c3noc(C4CCCO4)n3)cc2)c1` (centres unmarked) [Compound 39, 3-(4-((3-fluorophenyl)ethynyl)phenyl)-5-(tetrahydrofuran-2-yl)-1,2,4-oxadiazole], the EC50 is 300 to 1000 nM.
In turn, `CC(C)c1nc(-c2ccc(C#Cc3cccc(F)c3)cc2)no1` [Compound 24, 3-(4-((3-fluorophenyl)ethynyl)phenyl)-5-isopropyl-1,2,4-oxadiazole] returned an EC50 of 300 to 1000 nM.
Compound `CCC(C)c1nc(-c2ccc(C#Cc3cccc(F)c3)cc2)no1` (centres unmarked) [Compound 29, 5-5-(sec-butyl)-3-(4-((3-fluorophenyl)ethynyl)phenyl)-1,2,4-oxadiazole] came in with an EC50 of 100 to 300 nM.
In turn, `CN(C)Cc1nc(-c2ccc(C#Cc3cccc(F)c3)cn2)no1` [Compound 103, 1-(3-(5-((3-fluorophenyl)ethynyl)pyridin-2-yl)-1,2,4-oxadiazol-5-yl)-N,N-dimethylmethanamine] came in with a concentration for a half-maximal effect (EC50) of 30 to 100 nM.

The record behind these values is patent US10533000B2, “Metabotrophic glutamate receptor 5 modulators and methods of use thereof” (Sunovion Pharmaceuticals, Inc., priority 2011, dated 2020).
